The values below come from patent US20260053834A1, “COVALENT MODIFIERS OF AKT1 AND USES THEREOF” (Terremoto Biosciences, Inc., priority 2023, published 2026).

Where two headings read alike, the source gives them in different places.

The subject of assay [1] is LAPC4 prostate cancer cells, which express the AKT1 E17K allele. The assay can be described thus: Antiproliferative effects in LAPC4 cells (CellTiter Glo, 72 h). The assay is classed as cell-based. Conditions: read-out: LAPC4 proliferation IC50: GeoMean IC50. Put shortly:
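Cells grown in IMDM with 12% FBS, seeded at 1,000 cells/well and treated with compound dilutions in DMSO for 72 h. Intracellular ATP read by luminescence. IC50 from a log(inhibitor) vs. response Hill fit.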
On the technique in general: In ATP-based viability assays light output follows the ATP content of the culture.

Assay [2] addresses T1, AKT1 E17K (Homo sapiens, UniProt P31749, E17K).
T1 construct: expressed in transfected cells; host or cells: HEK293
The assay can be described thus: Live cell target engagement by NanoBRET competitive probe displacement, AKT1 E17K. The class given is binding. Conditions: transfected HEK293 cells, 2 h at 37° C., read-out: AKT1 E17K IC50: GeoMean IC50. A general note: In BRET a luciferase serves as donor, and the signal depends on an acceptor being close.

The target of assay [3] is T2, AKT1 WT (Homo sapiens, UniProt P31749).
T2 construct: expressed in transfected cells; host or cells: HEK293
The assay can be described thus: Live cell target engagement by NanoBRET competitive probe displacement, AKT1 WT. The class given is binding. Conditions: transfected HEK293 cells, 2 h at 37° C., read-out: AKT1 WT IC50: GeoMean IC50.

Assay [4] addresses T3, AKT2 (Homo sapiens, UniProt P31751).
T3 construct: expressed in transfected cells; host or cells: HEK293
The assay can be described thus: Live cell target engagement by NanoBRET competitive probe displacement, AKT2. The class given is binding. Conditions: transfected HEK293 cells, 2 h at 37° C., read-out: AKT2 IC50: GeoMean IC50.

T2 sequence (P31749 whole entry): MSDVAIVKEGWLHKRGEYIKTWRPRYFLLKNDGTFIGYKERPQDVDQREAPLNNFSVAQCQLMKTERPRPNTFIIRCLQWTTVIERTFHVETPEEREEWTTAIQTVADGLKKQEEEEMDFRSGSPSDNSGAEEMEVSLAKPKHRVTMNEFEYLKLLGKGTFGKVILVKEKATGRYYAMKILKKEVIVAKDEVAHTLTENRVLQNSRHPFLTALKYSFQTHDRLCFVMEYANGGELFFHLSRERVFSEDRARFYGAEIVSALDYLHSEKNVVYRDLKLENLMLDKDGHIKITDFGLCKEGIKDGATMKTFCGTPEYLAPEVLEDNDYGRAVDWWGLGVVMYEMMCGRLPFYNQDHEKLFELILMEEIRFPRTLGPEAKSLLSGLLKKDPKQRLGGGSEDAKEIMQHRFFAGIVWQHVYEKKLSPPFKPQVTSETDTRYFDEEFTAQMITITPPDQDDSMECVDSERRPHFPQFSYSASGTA
T3 sequence (P31751 whole entry): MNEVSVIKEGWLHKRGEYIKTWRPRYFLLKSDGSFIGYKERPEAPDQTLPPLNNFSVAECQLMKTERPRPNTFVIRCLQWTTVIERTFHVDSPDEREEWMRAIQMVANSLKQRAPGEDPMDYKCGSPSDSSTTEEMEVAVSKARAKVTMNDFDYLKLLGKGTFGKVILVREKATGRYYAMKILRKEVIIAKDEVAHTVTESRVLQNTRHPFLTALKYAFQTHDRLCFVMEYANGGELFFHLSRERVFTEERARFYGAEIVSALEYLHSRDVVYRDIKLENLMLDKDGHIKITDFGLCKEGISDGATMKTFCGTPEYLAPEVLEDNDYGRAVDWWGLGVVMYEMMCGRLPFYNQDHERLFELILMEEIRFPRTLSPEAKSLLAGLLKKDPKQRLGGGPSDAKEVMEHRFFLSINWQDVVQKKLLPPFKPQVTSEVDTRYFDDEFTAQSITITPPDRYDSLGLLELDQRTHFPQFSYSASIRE
T1 sequence (P31749 whole entry E17K): as the sequence (P31749 whole entry) above, with E17K counted along it

Take `COc1cc(F)c(C(=O)N[C@H]2CCc3cc(-n4c(-c5cccnc5N)nc5ccc(-n6cccn6)nc54)ccc32)cc1C=O` [Example 236, N-[(1S)-5-[2-(2-aminopyridin-3-yl)-5-(pyrazol-1-yl)imidazo[4,5-b]pyridin-3-yl]-2,3-dihydro-1H-inden-1-yl]-2-fluoro-5-formyl-4-methoxybenzamide]: the IC50 in assay [1] (Homo sapiens, LAPC4, 72 h) was 100 to 2000 nM; in assay [2], 10 to 100 nM; in assay [3] it was below 10 nM; in assay [4], 10 to 100 nM.
Turning to `CN(C)S(=O)(=O)Nc1ccc(C(=O)N[C@H]2CCc3cc(-n4c(-c5cccnc5N)nc5ccc(-n6cccn6)nc54)ccc32)cc1C=O` [Example 154, N-[(1S)-5-[2-(2-aminopyridin-3-yl)-5-(pyrazol-1-yl)imidazo[4,5-b]pyridin-3-yl]-2,3-dihydro-1H-inden-1-yl]-4-[(dimethylsulfamoyl)amino]-3-formylbenzamide], the IC50 was 10 to 100 nM in assay [1] (Homo sapiens, LAPC4, 72 h); below 10 nM in assay [2]; 10 to 100 nM in assay [3]; 100 to 2000 nM in assay [4].
As to `Nc1ncccc1-c1nc2ccc(-c3ccccc3)nc2n1-c1ccc2c(c1)CC[C@@H]2NC(=O)c1ccc(NC(=O)C2CC2)c(C=O)c1` [Example 47, N-[(1S)-5-[2-(2-aminopyridin-3-yl)-5-phenylimidazo[4,5-b]pyridin-3-yl]-2,3-dihydro-1H-inden-1-yl]-4-cyclopropaneamido-3-formylbenzamide], the IC50 was in the range of 10 to 100 nM in assay [1] (Homo sapiens, LAPC4, 72 h); 10 to 100 nM in assay [2]; 10 to 100 nM in assay [3]; 10 to 100 nM in assay [4].
For `Nc1ncccc1-c1nc2ccc(-c3ccn(C4COC4)n3)nc2n1-c1ccc2c(c1)CC[C@@H]2NC(=O)c1ccc(O)c(C=O)c1` [Example 171, N-[(1S)-5-[2-(2-aminopyridin-3-yl)-5-[1-(oxetan-3-yl)pyrazol-3-yl]imidazo[4,5-b]pyridin-3-yl]-2,3-dihydro-1H-inden-1-yl]-3-formyl-4-hydroxybenzamide], the IC50 lay in the range of 100 to 2000 nM in assay [1] (Homo sapiens, LAPC4, 72 h); 10 to 100 nM in assay [2]; 10 to 100 nM in assay [3]; 100 to 2000 nM in assay [4].
For the compound `Nc1ncccc1-c1nc2ccc(-n3cccn3)nc2n1-c1ccc2c(c1)CC(F)[C@@H]2NC(=O)c1cc(C=O)c(O)cc1F` (single isomer, unassigned) [Example 259, N-((1R,2S*)-5-(2-(2-aminopyridin-3-yl)-5-(1H-pyrazol-1-yl)-3H-imidazo[4,5-b]pyridin-3-yl)-2-fluoro-2,3-dihydro-1H-inden-1-yl)-2-fluoro-5-formyl-4-hydroxybenzamide], the IC50 in assay [1] was in the range of 10 to 100 nM; in assay [2] it was 10 to 100 nM; in assay [3], 10 to 100 nM; in assay [4], 100 to 2000 nM.
`CCc1cc(-n2cccn2)nc2c1nc(-c1cccnc1N)n2-c1ccc2c(c1)CC[C@@H]2NC(=O)c1ccc(O)c(C=O)c1` [Example 197, N-[(1S)-5-[2-(2-aminopyridin-3-yl)-7-ethyl-5-(pyrazol-1-yl)imidazo[4,5-b]pyridin-3-yl]-2,3-dihydro-1H-inden-1-yl]-3-formyl-4-hydroxybenzamide]: the IC50 in assay [1] (Homo sapiens, LAPC4, 72 h) was in the range of 100 to 2000 nM; in assay [2] it was 10 to 100 nM; in assay [3] it was 10 to 100 nM; in assay [4], 10 to 100 nM.
Take `Nc1ncccc1-c1nc2ccc(-n3ccnn3)nc2n1-c1ccc2c(c1)CC[C@@H]2NC(=O)c1ccc(O)c(C=O)c1` [Example 92, N-[(1S)-5-[2-(2-aminopyridin-3-yl)-5-(1,2,3-triazol-1-yl)imidazo[4,5-b]pyridin-3-yl]-2,3-dihydro-1H-inden-1-yl]-3-formyl-4-hydroxybenzamide]: the IC50 in assay [1] (Homo sapiens, LAPC4, 72 h) was 100 to 2000 nM; in assay [2] it was 10 to 100 nM; in assay [3], 10 to 100 nM; in assay [4] it was 100 to 2000 nM.
For `CC(=O)c1cc(C(=O)N[C@H]2CCc3cc(-n4c(-c5cccnc5N)nc5ccc(-n6cccn6)nc54)ccc32)cc(C=O)c1O` [Example 102, (S)-3-acetyl-N-(5-(2-(2-aminopyridin-3-yl)-5-(1H-pyrazol-1-yl)-3H-imidazo[4,5-b]pyridin-3-yl)-2,3-dihydro-1H-inden-1-yl)-5-formyl-4-hydroxybenzamide], the IC50 in assay [1] (Homo sapiens, LAPC4, 72 h) was in the range of 100 to 2000 nM; in assay [2] it was 10 to 100 nM; in assay [3], 10 to 100 nM; in assay [4] it was 10 to 100 nM.
Turning to `Nc1ncc(F)cc1-c1nc2ccc(-n3cccn3)nc2n1-c1ccc2c(c1)CC[C@@H]2NC(=O)c1ccc(O)c(C=O)c1` [Example 163, (S)—N-(5-(2-(2-amino-5-fluoropyridin-3-yl)-5-(1H-pyrazol-1-yl)-3H-imidazo[4,5-b]pyridin-3-yl)-2,3-dihydro-1H-inden-1-yl)-3-formyl-4-hydroxybenzamide], the IC50 was at least 2000 nM in assay [1] (Homo sapiens, LAPC4, 72 h); 10 to 100 nM in assay [2]; 10 to 100 nM in assay [3]; at least 2000 nM in assay [4].
Regarding `[2H]C(=O)c1cc(C(=O)N[C@H]2CCc3cc(-n4c(-c5cccnc5N)nc5ccc(-n6cccn6)nc54)ccc32)c(F)c(F)c1O` [Example 204, (S)—N-(5-(2-(2-aminopyridin-3-yl)-5-(1H-pyrazol-1-yl)-3H-imidazo[4,5-b]pyridin-3-yl)-2,3-dihydro-1H-inden-1-yl)-2,3-difluoro-5-(formyl-d)-4-hydroxybenzamide], the IC50 in assay [1] (Homo sapiens, LAPC4, 72 h) is 10 to 100 nM; in assay [2], below 10 nM; in assay [3], below 10 nM; in assay [4] it was 10 to 100 nM.
Regarding `Nc1ncccc1-c1nc2ccc(-c3ccccc3)nc2n1-c1ccc2c(c1)CC[C@@H]2NC(=O)c1cc(C=O)c2[nH]cnc2c1` [Example 162, N-[(1S)-5-[2-(2-aminopyridin-3-yl)-5-phenylimidazo[4,5-b]pyridin-3-yl]-2,3-dihydro-1H-inden-1-yl]-7-formyl-1H-1,3-benzodiazole-5-carboxamide], the IC50 in assay [1] (Homo sapiens, LAPC4, 72 h) was 10 to 100 nM; in assay [2], below 10 nM; in assay [3] it was below 10 nM; in assay [4], below 10 nM.
For `Nc1ncccc1-c1nc2ccc(-c3ncc(C(F)F)s3)nc2n1-c1ccc2c(c1)CC[C@@H]2NC(=O)c1ccc(O)c(C=O)c1` [Example 146, (S)—N-(5-(2-(2-aminopyridin-3-yl)-5-(5-(difluoromethyl)thiazol-2-yl)-3H-imidazo[4,5-b]pyridin-3-yl)-2,3-dihydro-1H-inden-1-yl)-3-formyl-4-hydroxybenzamide], the IC50 in assay [1] (Homo sapiens, LAPC4, 72 h) was in the range of 100 to 2000 nM; in assay [2] it was 10 to 100 nM; in assay [3] it was 100 to 2000 nM; in assay [4], 100 to 2000 nM.
For `COc1cc(-n2cccn2)nc2c1nc(-c1cccnc1N)n2-c1ccc2c(c1)CC[C@@H]2NC(=O)c1cc(C=O)c(O)cc1F` [Example 221, N-[(1S)-5-[2-(2-aminopyridin-3-yl)-7-methoxy-5-(pyrazol-1-yl)imidazo[4,5-b]pyridin-3-yl]-2,3-dihydro-1H-inden-1-yl]-2-fluoro-5-formyl-4-hydroxybenzamide], the IC50 in assay [1] (Homo sapiens, LAPC4, 72 h) lay within 10 to 100 nM; in assay [2], 10 to 100 nM; in assay [3], 10 to 100 nM; in assay [4] it was 100 to 2000 nM.
As to `Cc1cc(-n2cccn2)nc2c1nc(-c1cccnc1N)n2-c1ccc2c(c1)CC[C@@H]2NC(=O)c1cc(C=O)c(O)cc1F` [Example 202, (S)—N-(5-(2-(2-aminopyridin-3-yl)-7-methyl-5-(1H-pyrazol-1-yl)-3H-imidazo[4,5-b]pyridin-3-yl)-2,3-dihydro-1H-inden-1-yl)-2-fluoro-5-formyl-4-hydroxybenzamide], the IC50 in assay [1] (Homo sapiens, LAPC4, 72 h) is 10 to 100 nM; in assay [2], 10 to 100 nM; in assay [3] it was 10 to 100 nM; in assay [4], 10 to 100 nM.
